Literature values, collected in patent USRE37727E1, “Method for treating nerve injury pain associated with shingles” (priority 1989, dated 2002).

Settings: venous; reported range

CCN(CC)CC(=O)Nc1c(C)cccc1C [lidocaine]
minimum concentrations of lidocaine for anti-arrhythmic effects: 0.6 to 2.0 µg/mL
